Among the test systems are MALME-3M melanoma; NCI-H23 lung; OVCAR-3 ovarian; SF-539 CNS; SW-620 colon; UACC-62 melanoma; A498 renal; OVCAR-5 ovarian; PC-3 prostate; SR leukemia.
Holding throughout (experiment): growth of human tumour cells (NCI), 48 h

The values that follow come from PubChem BioAssay (NCI).

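Briefly, cells in 96-well plates were exposed to five compound concentrations for 48 h, and endpoints were estimated by linear interpolation. Abbreviation: GI50, concentration required for 50% inhibition of growth. At the TGI there is no net growth.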

As to `O=C(Nc1cc(Cl)ccc1Cl)c1cc2cccc(Cl)c2oc1=O`, the TGI in the assay with MALME-3M melanoma, with NCI-H23 lung, in the assay on OVCAR-3 ovarian, with SF-539 CNS, in the assay on SW-620 colon and in the assay with UACC-62 melanoma was over 100 µM each time.
As for `O=c1[nH]cc(COCCO)c(=O)[nH]1`, the TGI in the assay with A498 renal, with MALME-3M melanoma, in the assay with NCI-H23 lung, in the assay on OVCAR-3 ovarian, with OVCAR-5 ovarian and in the assay with SF-539 CNS was over 100 µM in each case. Moreover, the TGI in the assay with SW-620 colon and with UACC-62 melanoma was over 100 µM each time.
As to `COc1ccncc1C#Cc1cncc(C(=O)Nc2ccc(CN3CCN(C)CC3)c(C(F)(F)F)c2)c1`, the GI50 with A498 renal was 17.4 µM; in the assay on MALME-3M melanoma, 4.3 µM; with NCI-H23 lung it was 16.3 µM; in the assay with OVCAR-3 ovarian it was 21.6 µM; with OVCAR-5 ovarian, 23 µM; in the assay with PC-3 prostate, 27.3 µM. Besides, the GI50 with SF-539 CNS is 5.39 µM; with SW-620 colon it was 14.6 µM; in the assay on UACC-62 melanoma, 13.6 µM. Also, the TGI in the assay with A498 renal is 79.5 µM; with MALME-3M melanoma it was 23.3 µM; with NCI-H23 lung it was over 100 µM; with OVCAR-3 ovarian it was 89.7 µM; in the assay with OVCAR-5 ovarian it was over 100 µM; in the assay on PC-3 prostate, over 100 µM. Moreover, the TGI in the assay on SF-539 CNS was 66.6 µM; in the assay on SW-620 colon it was 64.3 µM; in the assay with UACC-62 melanoma it was over 100 µM.
With `O=C1[C@@H]2C3c4ccccc4C([C@@H]2C(=O)N1c1ccccc1)S3(=O)=O`, the TGI with MALME-3M melanoma, with NCI-H23 lung, with OVCAR-3 ovarian, in the assay with OVCAR-5 ovarian, in the assay with SF-539 CNS and in the assay with SR leukemia was over 100 µM each time. The TGI with SW-620 colon and with UACC-62 melanoma was over 100 µM each time.
Take `O=C1c2ccccc2C2(O)c3cc4ccccc4cc3OC12O` (stereo unspecified): the TGI in the assay on A498 renal, with MALME-3M melanoma, with NCI-H23 lung, in the assay on OVCAR-3 ovarian, with OVCAR-5 ovarian and in the assay on SF-539 CNS was over 100 µM each time. The TGI in the assay with SW-620 colon and with UACC-62 melanoma was over 100 µM throughout.
Take `O=C(O)[C@H](NS(=O)(=O)c1ccc2ccccc2c1)c1ccccc1`: the TGI in the assay on A498 renal, in the assay on MALME-3M melanoma, in the assay with NCI-H23 lung, in the assay with OVCAR-5 ovarian, in the assay with SF-539 CNS and in the assay with UACC-62 melanoma was over 100 µM in each case.
With `COc1cccc2c1C(=O)c1c(O)c3c(c(O)c1C2=O)CC(O)(/C(C)=N/NC(=O)CCC(=O)N/N=C(\C)C1(O)Cc2c(O)c4c(c(O)c2C(OC2CC(N)C(O)C(C)O2)C1)C(=O)c1c(OC)cccc1C4=O)CC3OC1CC(N)C(O)C(C)O1` (stereo unspecified), the GI50 in the assay with A498 renal is 0.161 µM; with MALME-3M melanoma, 0.285 µM; with NCI-H23 lung it was 0.186 µM; with OVCAR-3 ovarian it was 0.259 µM; in the assay with OVCAR-5 ovarian it was 1.02 µM; in the assay with PC-3 prostate, 0.958 µM. Also, the results for the GI50 with SF-539 CNS and with SW-620 colon were 0.179 µM and 0.193 µM, respectively. For the same compound, the TGI with A498 renal was 0.939 µM; with MALME-3M melanoma, 1.12 µM; in the assay with NCI-H23 lung it was 1.43 µM; with OVCAR-3 ovarian, 2.66 µM; with OVCAR-5 ovarian, 3.68 µM; with PC-3 prostate it was over 21.2 µM. Besides, the TGI with SF-539 CNS is 0.859 µM; in the assay with SW-620 colon it was 5.36 µM.
Consider `Cc1ccc(Cn2c(C)nc3c2C(=O)c2ccccc2C3=O)cc1`, for which the TGI is 34.3 µM in the assay on MALME-3M melanoma; 20.5 µM in the assay on NCI-H23 lung; 36.6 µM in the assay with OVCAR-3 ovarian; 18.7 µM with SF-539 CNS; over 100 µM in the assay on SR leukemia; over 100 µM with SW-620 colon. In the assay on UACC-62 melanoma, the TGI was 16.1 µM.
Take `O=C(O)CSc1n[nH]c(-c2ccccc2)n1`: the TGI in the assay on A498 renal, with MALME-3M melanoma, in the assay on NCI-H23 lung, in the assay with OVCAR-3 ovarian, in the assay with OVCAR-5 ovarian and in the assay on SF-539 CNS was over 100 µM each time. Further, the TGI in the assay on SW-620 colon and in the assay on UACC-62 melanoma was over 100 µM throughout.
For the compound `CCOc1ccc(N2C(=O)/C(=C/c3ccc(N(CCC#N)CCC#N)cc3)N=C2c2cc([N+](=O)[O-])ccc2Cl)cc1`, the TGI was over 100 µM with A498 renal; over 100 µM with NCI-H23 lung; 56.5 µM with OVCAR-3 ovarian; over 100 µM in the assay with OVCAR-5 ovarian; over 100 µM in the assay on SF-539 CNS; 55.9 µM with SW-620 colon. Further, the TGI in the assay with UACC-62 melanoma was found to be 83.3 µM.
Regarding `COc1c(OC)c(OC)c(C(=O)/C=C/c2ccccc2)c(OC)c1OC`, the TGI with A498 renal stood at 17.5 µM; in the assay on MALME-3M melanoma it was 30.1 µM; with NCI-H23 lung, 26.8 µM; in the assay on OVCAR-3 ovarian it was 25.1 µM; in the assay with OVCAR-5 ovarian it was 36.9 µM; with PC-3 prostate, 31.1 µM. Besides, the values for the TGI in the assay on SF-539 CNS, in the assay on SW-620 colon and with UACC-62 melanoma were 30.9 µM, 31 µM and 24.2 µM, respectively.
With `CC(=O)O[C@H]1CCC2[C@@H]3CCC4=C(O)c5nocc5C[C@]4(C)C3CC[C@@]21C` (stereo partly specified), the TGI in the assay with A498 renal, with MALME-3M melanoma, in the assay on NCI-H23 lung, in the assay with OVCAR-3 ovarian, in the assay with OVCAR-5 ovarian and in the assay on SF-539 CNS was over 100 µM throughout. Moreover, the TGI in the assay on SW-620 colon and in the assay on UACC-62 melanoma was over 100 µM each time.
As to `O=C(NCCCCN=c1cccccc1NCCCCNC(=O)OCc1ccccc1)OCc1ccccc1`, the TGI in the assay on MALME-3M melanoma worked out at 40.6 µM; with NCI-H23 lung, 48.8 µM; with OVCAR-3 ovarian it was 29.5 µM; in the assay with OVCAR-5 ovarian it was 41.9 µM; in the assay on SF-539 CNS it was 31.8 µM; with SW-620 colon it was 41.7 µM. In the assay on UACC-62 melanoma, the TGI is 37.5 µM.
As to `CCOC(=O)NC(=O)c1cn(CCOC(=O)NCCCCCCNC(=O)OCCn2cc(C(=O)NC(=O)OCC)c(=O)[nH]c2=O)c(=O)[nH]c1=O`, the TGI in the assay on A498 renal, in the assay on MALME-3M melanoma, in the assay with OVCAR-3 ovarian, in the assay with SW-620 colon and in the assay with UACC-62 melanoma was over 100 µM throughout.
